Test [1] in a line: LPS binding assay (coated wells). Further details: species or system E. coli. How it is done: K. pneumoniae (3×10^5 CFU/well), E. coli O111:B4 smooth-type LPS (5 μg/well), or bovine serum albumin (BSA, 5 μg/well) in 100 μL of bicarbonate buffer (pH 9.6) were coated onto wells of high-binding microtiter plate (Corning Costar, Cambridge, Mass.). Nonspecific binding was blocked with binding buffer (20 mM Tris-HCl, pH 7.4, 0.15 M NaCl, 5 mM CaCl2) containing 50 mg/mL BSA. Various concentrations of rTMD proteins without or with CD14 (10 μg/mL; R&D Systems) in binding buffer containing 1 mg/mL BSA were added to wells and incubated for 2 hours. In some experiments, 0.2 M mannose, 5 mM EDTA, or Le^y were included in the binding buffer to compete with LPS and rTMD1 binding. Antibody against the c-Myc epitope of the rTMD proteins was added to wells and incubated for 2 hours, and peroxidase-labeled secondary antibody followed. Binding of rTMD proteins was detected by measuring absorbance at 450 nm.

A further test has as its system K. pneumoniae. The experiment in a line: Bacterial agglutination, FITC-labeled K. pneumoniae. Conditions: 0.2 M mannose or 5 mM EDTA. The procedure:
(§1) K. pneumoniae and E. coli DH5α (BCRC) were washed twice in 0.1 M sodium bicarbonate buffer (pH 9.6) and incubated with 0.1 mg/mL fluorescein isothiocyanate (FITC) at 37° C. in the dark. Each of 20 μg/mL of rTMD1, non-tagged rTMD1, mammalian rTMD1, and recombinant TM domains 2 and 3 (rTMD23) was co-incubated with FITC-labeled bacteria (1×10^5CFU/mL) in buffer (20 mM Tris, pH 7.4, 0.15 M NaCl, 5 mM CaCl2, 1 mg/mL BSA) with or without 0.2 M mannose or 5 mM EDTA. Samples were individually placed on a glass slide and fluorescently-labeled bacteria were observed microscopically to evaluate agglutination.

In the next test the test system is E. coli DH5α. In words: Bacterial agglutination, FITC-labeled E. coli DH5α. Conditions: 0.2 M mannose or 5 mM EDTA. How it is done:
as §1

Test [2] has as its target T1, rTMD1 (Homo sapiens, UniProt P07204).
T1 construct: TMD1 (residues Ala^1-Ala^155); made in house
In words: rTMD1 ligand analysis (AlphaScreen). It counts as binding. Conditions: mammalian- or Pichia-expressed rTMD1. How it is done: Biotin-polyacrylamide (Biotin-PAA)-sugars (GlycoTech, Rockville, Mass.), rTMD1, rabbit anti-mouse IgG antibody (Zymed), mouse anti-6× His tag antibody (Abcam, Cambridge, UK), and streptavidin-coated donor and protein A conjugated acceptor beads (PerkinElmer, Boston, Mass.) were diluted with assay buffer containing 25 mM Tris (pH 7.0), 25 mM CaCl2, and 1 mg/mL BSA to appropriate concentrations. The anti-6× His tag antibody, rabbit anti-mouse IgG antibody, and acceptor beads were incubated with assay buffer for 1 hour at 25° C. before use (as the acceptor mixture). Biotin-PAA-sugars, rTMD1, and donor beads were separately added to wells of ProxiPlate-384 assay plates (PerkinElmer) and incubated at 25° C. for 1 hour. An aliquot of the acceptor mixture was then added to the wells and incubated at 25° C. for another 2 hours. The results were read on a PerkinElmer Envision instrument using the AlphaScreen program. All the procedures and incubations were carried out in the dark.
A general note: Alpha assays give light when donor and acceptor beads are brought close together.

The subject of test [3] is rTMD1. The experiment in a line: Effect of Le^y on the blocking effect of rTMD1 on LPS-induced signaling pathways (Western blot). To be noted: rTMD1 20 μg/mL, LPS 100 ng/mL. Type of test: cell-based. The procedure:
rTMD1 (0-50 μg/mL, equals 0-2.18 nmole/mL) pre-incubated without or with Escherichia coli (E. coli) LPS (LPS O111:B4, Sigma-Aldrich) in the absence or presence of Lewis Y (Le^y; Dextra Laboratories, Reading, UK) for 30 minutes was used to stimulate THP-1 or RAW 264.7 cells. Incubation period included 15 minutes for pIκB and IκB (B-9 and C-21, Santa Cruz Biotechnology, Santa Cruz, Calif., unless otherwise noted), 20 minutes for p38 (C-20) and pp38 (D-8), 30 minutes for ERK1/2 (K-23), pERK1/2 (E-4), lamin B2 (E-3, Zymed Laboratories, San Francisco, Calif.), NF-κB p50 (C-19) and NF-κB p65 nuclear translocation (C-20), and 24 hours for iNOS expression using a specific antibody (N-20).

Test [4] has as its target T2, HMGB1 and rTMD1 interaction (Homo sapiens, UniProt P07204).
T2 construct: TMD1 (residues Ala^1-Ala^155); 6xHis (C); enterokinase cutting site (internal); made in house
The experiment in a line: Effect of Le^y on the binding of HMGB1 with rTMD1.

T2 sequence (P07204 19-173): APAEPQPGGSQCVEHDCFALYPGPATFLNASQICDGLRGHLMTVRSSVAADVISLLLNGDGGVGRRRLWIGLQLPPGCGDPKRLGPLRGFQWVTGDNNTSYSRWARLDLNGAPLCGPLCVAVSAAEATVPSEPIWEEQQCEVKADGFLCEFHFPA
T2 sequence (P09429 whole entry partner): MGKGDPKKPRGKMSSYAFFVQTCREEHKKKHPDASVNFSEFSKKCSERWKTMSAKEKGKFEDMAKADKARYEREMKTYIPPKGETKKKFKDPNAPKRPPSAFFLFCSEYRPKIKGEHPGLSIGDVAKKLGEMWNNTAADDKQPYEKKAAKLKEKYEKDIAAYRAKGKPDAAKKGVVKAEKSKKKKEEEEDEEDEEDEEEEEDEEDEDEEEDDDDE
T1 sequence (P07204 19-173): as the sequence (P07204 19-173) above

`O=C(O)CN(CCN(CC(=O)O)CC(=O)O)CC(=O)O` [EDTA, reference compound]: the “effect on binding of rTMD1 to LPS” value in test [1] (0.2 M mannose or 5 mM EDTA, rTMD1 50 μg/mL) is reported as “inhibited”. Further, the “effect on rTMD1 agglutination activity, K. pneumoniae” value with K. pneumoniae was “attenuated”. For the same compound, the “effect on rTMD1 agglutination activity, E. coli DH5α” value with E. coli DH5α is listed as “attenuated”.

For Fucα1-2Galβ1-4(Fucα1-3)GlcNAc [Le^y], at rTMD1 [2], the “rTMD1 affinity of carbohydrate ligand” value is “specific ligand”. Besides, the “effect on binding of rTMD1 with LPS” value in test [1] (various concentrations of Le^y, FIG. 6B) was “specifically inhibited”. Further, in the test on rTMD1 [3], the “effect on blocking effects of rTMD1 on LPS-induced ERK1/2 phosphorylation, IκBα degradation, and NF-κB p50 and p65 nuclear translocation” value is on record as “dose-dependently neutralize”. Also, the “effect on HMGB1 and rTMD1 interaction” value in test [4] was “could not abrogate”.
